Measured values as given in ChEMBL document CHEMBL5331050, “Spiro[benzoxazine-piperidin]-one derivatives as chitin synthase inhibitors and antifungal agents: Design, synthesis and biological evaluation” (Eur J Med Chem, 2022).
≈ marks a conversion by molar mass, not a printed value.

Tests used:
Format in all cases: functional
[1] = tested on: Cryptococcus neoformans; assay: (§1) Synergistic antifungal activity against Cryptococcus neoformans ATCC 208821 assessed as fungal growth inhibition incubated for 24 hrs in the presence of 4-(6-methoxy-2-oxo-1,2-dihydrospiro[benzo[d][1,3]oxazine-4,4'-piperidin]-1'-yl)-N-(4-methoxyphenyl)-4-oxobut-2-enamide by broth dilution based checkerboard method
[2] = tested on: Cryptococcus neoformans; assay: (§2) Synergistic antifungal activity against Cryptococcus neoformans ATCC 208821 assessed as fungal growth inhibition incubated for 24 hrs in the presence of 4-(6-methoxy-2-oxo-1,2-dihydrospiro[benzo[d][1,3]oxazine-4,4'-piperidin]-1'-yl)-4-oxo-N-phenylbut-2-enamide by broth dilution based checkerboard method
[3] = tested on: Candida albicans; assay: Antifungal activity against fluconazole-resistant Candida albicans ATCC 76615R assessed as fungal growth inhibition
[4] = tested on: Candida albicans; assay: (§3) Synergistic antifungal activity against Candida albicans ATCC 76615 assessed as fungal growth inhibition incubated for 24 hrs in the presence of N-(3-chloro-4-fluorophenyl)-4-(6-methoxy-2-oxo-1,2-dihydrospiro[benzo[d][1,3]oxazine-4,4'-piperidin]-1'-yl)-4-oxobut-2-enamide by broth dilution based checkerboard method
[5] = tested on: Aspergillus flavus; assay: as §1, with “Aspergillus flavus” for “Cryptococcus neoformans”, “16870” for “208821”
[6] = tested on: Cryptococcus neoformans; assay: (§4) Synergistic antifungal activity against Cryptococcus neoformans ATCC 208821 assessed as fungal growth inhibition incubated for 24 hrs in the presence of N-(2-chlorophenyl)-4-(6-methoxy-2-oxo-1,2-dihydrospiro[benzo[d][1,3]oxazine-4,4'-piperidin]-1'-yl)-4-oxobut-2-enamide by broth dilution based checkerboard method
[7] = tested on: Aspergillus fumigatus; assay: as §3, with “Aspergillus fumigatus GIMCC 3.19” for “Candida albicans ATCC 76615”
[8] = tested on: Cryptococcus neoformans; assay: Antifungal activity against Cryptococcus neoformans ATCC 208821 assessed as fungal growth inhibition incubated for 24 hrs by CLSI protocol based broth microdilution method
[9] = tested on: Aspergillus fumigatus; assay: Antifungal activity against Aspergillus fumigatus GIMCC 3.19 assessed as fungal growth inhibition incubated for 24 hrs by CLSI protocol based broth microdilution method
[10] = tested on: Aspergillus fumigatus; assay: as §1, with “Aspergillus fumigatus GIMCC 3.19” for “Cryptococcus neoformans ATCC 208821”
[11] = tested on: Candida albicans; assay: (§5) Synergistic antifungal activity against Candida albicans ATCC 76615 assessed as fungal growth inhibition incubated for 24 hrs in the presence of 4-(6-methoxy-2-oxo-1,2-dihydrospiro[benzo[d][1,3]oxazine-4,4'-piperidin]-1'-yl)-N-(2-methoxy-4-nitrophenyl)-4-oxobut-2-enamide by broth dilution based checkerboard method
[12] = tested on: Aspergillus fumigatus; assay: as §5, with “Aspergillus fumigatus GIMCC 3.19” for “Candida albicans ATCC 76615”
[13] = tested on: Aspergillus flavus; assay: as §4, with “Aspergillus flavus” for “Cryptococcus neoformans”, “16870” for “208821”
[14] = tested on: Aspergillus fumigatus; assay: as §4, with “Aspergillus fumigatus GIMCC 3.19” for “Cryptococcus neoformans ATCC 208821”
[15] = tested on: Aspergillus flavus; assay: as §5, with “Aspergillus flavus” for “Candida albicans”, “16870” for “76615”
[16] = tested on: Aspergillus fumigatus; assay: as §2, with “Aspergillus fumigatus GIMCC 3.19” for “Cryptococcus neoformans ATCC 208821”
[17] = tested on: Cryptococcus neoformans; assay: Antifungal activity against fluconazole-resistant Cryptococcus neoformans ATCC 208821R assessed as fungal growth inhibition
[18] = tested on: Cryptococcus neoformans; assay: Synergistic antifungal activity against Cryptococcus neoformans ATCC 208821 assessed as fungal growth inhibition incubated for 24 hrs in the presence of N-(3-chloro-4-fluorophenyl)-4-(6-methoxy-2-oxo-1,2-dihydrospiro[benzo[d][1,3]oxazine-4,4'-piperidin]-1'-yl)-4-oxobut-2-enamide by broth dilution based checkerboard method
[19] = tested on: Aspergillus fumigatus; assay: Synergistic antifungal activity against Aspergillus fumigatus GIMCC 3.19 assessed as fungal growth inhibition incubated for 24 hrs in the presence of N-(4-bromophenyl)-4-(6-methoxy-2-oxo-1,2-dihydrospiro[benzo[d][1,3]oxazine-4,4'-piperidin]-1'-yl)-4-oxobut-2-enamide by broth dilution based checkerboard method
[20] = tested on: Aspergillus flavus; assay: Synergistic antifungal activity against Aspergillus flavus ATCC 16870 assessed as fungal growth inhibition incubated for 24 hrs in the presence of 4-(6-methoxy-2-oxo-1,2-dihydrospiro[benzo[d][1,3]oxazine-4,4'-piperidin]-1'-yl)-4-oxo-N-phenylbut-2-enamide by broth dilution based checkerboard method
[21] = tested on: Aspergillus flavus; assay: Synergistic antifungal activity against Aspergillus flavus ATCC 16870 assessed as fungal growth inhibition incubated for 24 hrs in the presence of N-(3-chloro-4-fluorophenyl)-4-(6-methoxy-2-oxo-1,2-dihydrospiro[benzo[d][1,3]oxazine-4,4'-piperidin]-1'-yl)-4-oxobut-2-enamide by broth dilution based checkerboard method
[22] = tested on: Aspergillus flavus; assay: Synergistic antifungal activity against Aspergillus flavus ATCC 16870 assessed as fungal growth inhibition incubated for 24 hrs in the presence of N-(4-bromophenyl)-4-(6-methoxy-2-oxo-1,2-dihydrospiro[benzo[d][1,3]oxazine-4,4'-piperidin]-1'-yl)-4-oxobut-2-enamide by broth dilution based checkerboard method
[23] = tested on: Cryptococcus neoformans; assay: Synergistic antifungal activity against Cryptococcus neoformans ATCC 208821 assessed as fungal growth inhibition incubated for 24 hrs in the presence of N-(4-bromophenyl)-4-(6-methoxy-2-oxo-1,2-dihydrospiro[benzo[d][1,3]oxazine-4,4'-piperidin]-1'-yl)-4-oxobut-2-enamide by broth dilution based checkerboard method
[24] = tested on: Candida albicans; assay: Synergistic antifungal activity against Candida albicans ATCC 76615 assessed as fungal growth inhibition incubated for 24 hrs in the presence of N-(2-chlorophenyl)-4-(6-methoxy-2-oxo-1,2-dihydrospiro[benzo[d][1,3]oxazine-4,4'-piperidin]-1'-yl)-4-oxobut-2-enamide by broth dilution based checkerboard method
[25] = tested on: Candida albicans; assay: Synergistic antifungal activity against Candida albicans ATCC 76615 assessed as fungal growth inhibition incubated for 24 hrs in the presence of N-(4-bromophenyl)-4-(6-methoxy-2-oxo-1,2-dihydrospiro[benzo[d][1,3]oxazine-4,4'-piperidin]-1'-yl)-4-oxobut-2-enamide by broth dilution based checkerboard method
[26] = tested on: Candida albicans; assay: Synergistic antifungal activity against Candida albicans ATCC 76615 assessed as fungal growth inhibition incubated for 24 hrs in the presence of 4-(6-methoxy-2-oxo-1,2-dihydrospiro[benzo[d][1,3]oxazine-4,4'-piperidin]-1'-yl)-N-(4-methoxyphenyl)-4-oxobut-2-enamide by broth dilution based checkerboard method
[27] = tested on: Aspergillus flavus; assay: Antifungal activity against Aspergillus flavus ATCC 16870 assessed as fungal growth inhibition incubated for 24 hrs by CLSI protocol based broth microdilution method
[28] = tested on: Candida albicans; assay: Antifungal activity against Candida albicans ATCC 76615 assessed as fungal growth inhibition incubated for 24 hrs by CLSI protocol based broth microdilution method
[29] = tested on: Cryptococcus neoformans; assay: Synergistic antifungal activity against Cryptococcus neoformans ATCC 208821 assessed as fungal growth inhibition incubated for 24 hrs in the presence of 4-(6-methoxy-2-oxo-1,2-dihydrospiro[benzo[d][1,3]oxazine-4,4'-piperidin]-1'-yl)-N-(2-methoxy-4-nitrophenyl)-4-oxobut-2-enamide by broth dilution based checkerboard method
[30] = tested on: Candida albicans; assay: Synergistic antifungal activity against Candida albicans ATCC 76615 assessed as fungal growth inhibition incubated for 24 hrs in the presence of 4-(6-methoxy-2-oxo-1,2-dihydrospiro[benzo[d][1,3]oxazine-4,4'-piperidin]-1'-yl)-4-oxo-N-phenylbut-2-enamide by broth dilution based checkerboard method

Question: Which MIC [1] does the source give for `OC(Cn1cncn1)(Cn1cncn1)c1ccc(F)cc1F` [FLUCONAZOLE] here?
Answer: 16 µg/mL

Question: What about the MIC [2] of the same molecule?
Answer: 16 µg/mL

Question: What about the MIC [3] of the same molecule?
Answer: 256 µg/mL (≈ 836 µM)

Question: And the MIC [4]?
Answer: 16 µg/mL

Question: What about the MIC [5] of the same molecule?
Answer: 16 µg/mL

Question: And the MIC [6]?
Answer: 4 µg/mL

Question: What about the MIC [7] of the same molecule?
Answer: 4 µg/mL

Question: What about the MIC [8] of the same molecule?
Answer: 32 µg/mL (≈ 104 µM)

Question: What about the MIC [9] of the same molecule?
Answer: 16 µg/mL (≈ 52.2 µM)

Question: And the MIC [10]?
Answer: 16 µg/mL

Question: What about the MIC [11] of the same molecule?
Answer: 16 µg/mL

Question: And the MIC [12]?
Answer: 16 µg/mL

Question: What about the MIC [13] of the same molecule?
Answer: 16 µg/mL

Question: And the MIC [14]?
Answer: 16 µg/mL

Question: And the MIC [15]?
Answer: 16 µg/mL

Question: And the MIC [16]?
Answer: 4 µg/mL

Question: And the MIC [17]?
Answer: 256 µg/mL (≈ 836 µM)

Question: What about the MIC [18] of the same molecule?
Answer: 4 µg/mL

Question: What about the MIC [19] of the same molecule?
Answer: 16 µg/mL

Question: What about the MIC [20] of the same molecule?
Answer: 8 µg/mL

Question: And the MIC [21]?
Answer: 16 µg/mL

Question: And the MIC [22]?
Answer: 32 µg/mL

Question: And the MIC [23]?
Answer: 16 µg/mL

Question: And the MIC [24]?
Answer: 4 µg/mL

Question: What about the MIC [25] of the same molecule?
Answer: 4 µg/mL

Question: And the MIC [26]?
Answer: 16 µg/mL

Question: What about the MIC [27] of the same molecule?
Answer: 16 µg/mL (≈ 52.2 µM)

Question: What about the MIC [28] of the same molecule?
Answer: 16 µg/mL (≈ 52.2 µM)

Question: And the MIC [29]?
Answer: 16 µg/mL

Question: What about the MIC [30] of the same molecule?
Answer: 8 µg/mL
